Test results from patent US10494355B2, “Oxadiazole amine derivative compounds as histone deacetylase 6 inhibitor, and the pharmaceutical composition comprising the same” (Chong Kun Dang Pharmaceutical Corp., priority 2015, dated 2019).

How the values were obtained:
human recombinant HDAC1 = target: T1, human recombinant HDAC1 (Homo sapiens, UniProt Q13547); test: HDAC1 enzyme activity inhibition assay (HDAC Fluorimetric Drug Discovery Kit); assay type: biochemical; details: human recombinant HDAC1, 10 μM substrate, 30° C. 60 minutes
T1 construct: purchased Enzo Life Science BML-SE456
T1 sequence (Q13547 whole entry): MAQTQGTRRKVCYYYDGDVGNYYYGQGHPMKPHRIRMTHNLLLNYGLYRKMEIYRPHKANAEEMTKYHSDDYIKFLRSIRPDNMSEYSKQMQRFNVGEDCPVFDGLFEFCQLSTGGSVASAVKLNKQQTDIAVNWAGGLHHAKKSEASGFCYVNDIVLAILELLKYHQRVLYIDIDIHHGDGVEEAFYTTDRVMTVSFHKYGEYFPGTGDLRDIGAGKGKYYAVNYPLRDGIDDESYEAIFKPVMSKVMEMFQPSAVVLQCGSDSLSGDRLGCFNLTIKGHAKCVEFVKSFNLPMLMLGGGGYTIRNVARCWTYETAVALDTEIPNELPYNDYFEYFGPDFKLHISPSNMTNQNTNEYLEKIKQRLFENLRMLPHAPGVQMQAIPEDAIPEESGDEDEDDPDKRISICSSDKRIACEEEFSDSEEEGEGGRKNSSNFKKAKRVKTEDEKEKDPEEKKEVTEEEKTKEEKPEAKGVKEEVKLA
Protocol: (§1) In order to examine the HDAC6 selectivity of the compounds of formula I of the present invention by HDAC1 and HDAC6 enzymatic activity inhibition assays, an experiment was performed using a conventional substance as a control.
(§2) HDAC enzyme activity was measured using a HDAC Fluorimetric Drug Discovery Kit (BML-AK511, 516, Enzo Life Science). For the HDAC1 enzyme activity test, human recombinant HDAC1 (BML-SE456) was used as an enzyme source, and Fluor de Lys®-“SIRT1 (BNL-KI177) was used as a substrate. A 5-fold dilution of the compound was seeded into a 96-well plate, and then 0.3 μg of the enzyme and 10 μM of the substrate were added to each well of the plate and allowed to react at 30° C. for 60 minutes. Then, Fluor de Lys®-Developer II (BML-KI176) was added thereto and allowed to react for 30 minutes, after which the fluorescence value (Ex 360, Em 460) was measured using a multi-plate reader (Flexstation 3, Molecular Device). The HDAC6 enzyme was tested using human recombinant HDAC6 (382180) (Calbiochem) according to the same protocol as the HDAC1 enzyme activity test method. Based on the resulting values, each IC50 value was calculated using GraphPad Prism4.0 program.

human recombinant HDAC6 = target: T2, human recombinant HDAC6 (Homo sapiens, UniProt Q9UBN7); test: HDAC6 enzyme activity inhibition assay (HDAC Fluorimetric Drug Discovery Kit); assay type: biochemical; details: 30° C. 60 minutes
T2 construct: purchased Calbiochem 382180
T2 sequence (Q9UBN7 1-1215): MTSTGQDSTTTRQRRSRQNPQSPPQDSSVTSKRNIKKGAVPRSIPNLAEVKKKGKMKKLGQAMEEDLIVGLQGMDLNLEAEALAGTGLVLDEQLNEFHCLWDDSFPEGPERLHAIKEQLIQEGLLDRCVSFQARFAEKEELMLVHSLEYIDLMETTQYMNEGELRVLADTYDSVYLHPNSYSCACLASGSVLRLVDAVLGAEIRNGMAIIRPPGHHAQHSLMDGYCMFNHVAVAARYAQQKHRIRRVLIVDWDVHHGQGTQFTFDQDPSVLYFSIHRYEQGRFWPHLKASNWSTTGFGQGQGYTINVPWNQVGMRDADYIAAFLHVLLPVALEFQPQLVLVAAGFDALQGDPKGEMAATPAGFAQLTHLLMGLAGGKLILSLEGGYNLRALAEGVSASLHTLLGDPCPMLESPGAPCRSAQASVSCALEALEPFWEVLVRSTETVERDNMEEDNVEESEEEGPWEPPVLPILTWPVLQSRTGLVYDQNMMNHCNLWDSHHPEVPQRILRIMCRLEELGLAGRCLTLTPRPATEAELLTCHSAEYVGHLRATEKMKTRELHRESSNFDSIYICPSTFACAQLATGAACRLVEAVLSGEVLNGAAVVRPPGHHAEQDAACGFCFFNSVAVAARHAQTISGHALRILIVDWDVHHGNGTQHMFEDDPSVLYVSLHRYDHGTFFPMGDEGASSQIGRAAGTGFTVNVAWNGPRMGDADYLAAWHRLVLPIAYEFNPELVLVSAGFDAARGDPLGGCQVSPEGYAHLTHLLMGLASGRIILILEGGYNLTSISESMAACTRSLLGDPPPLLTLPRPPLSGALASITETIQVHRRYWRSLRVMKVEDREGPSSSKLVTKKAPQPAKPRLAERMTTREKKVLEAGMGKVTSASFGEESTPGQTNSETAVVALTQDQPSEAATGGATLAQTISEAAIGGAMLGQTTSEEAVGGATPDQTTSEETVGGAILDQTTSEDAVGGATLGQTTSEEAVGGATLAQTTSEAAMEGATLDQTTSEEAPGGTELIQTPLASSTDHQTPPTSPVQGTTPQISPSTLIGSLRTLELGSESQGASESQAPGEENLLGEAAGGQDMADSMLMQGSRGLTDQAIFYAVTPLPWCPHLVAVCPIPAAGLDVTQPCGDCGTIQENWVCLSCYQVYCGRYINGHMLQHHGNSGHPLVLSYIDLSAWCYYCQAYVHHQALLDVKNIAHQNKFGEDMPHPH
Protocol: as §1, §2

IC50 (human recombinant HDAC1) [nM]	IC50 (human recombinant HDAC6) [nM]	SMILES
> 10000	138	Fc1cccc(C2(Nc3ncc(-c4nnc(C(F)(F)F)o4)cn3)CC2)c1 [Compound 1714, N-(1-(3-fluorophenyl)cyclopropyl)-5-(5-(trifluoromethyl)-1,3,4-oxadiazol-2-yl)pyrimidin-2-amine]
> 10000	519	FC(F)(F)c1nnc(-c2cnc(NC3(c4ccc(Cl)cc4)CC3)nc2)o1 [Compound 2053, N-(1-(4-chlorophenyl)cyclopropyl)-5-(5-(trifluoromethyl)-1,3,4-oxadiazol-2-yl)pyrimidin-2-amine]
> 10000	531	FC(F)(F)c1ccc(C2(Nc3ncc(-c4nnc(C(F)(F)F)o4)cn3)CC2)cc1 [Compound 1742, 5-(5-(trifluoromethyl)-1,3,4-oxadiazol-2-yl)-N-(1-(4-(trifluoromethyl)phenyl)cyclopropyl)pyrimidin-2-amine]
> 10000	282	FC(F)c1nnc(-c2cnc(NC3(c4ccc(OC(F)(F)F)cc4)CCC3)nc2)o1 [Compound 1822, 5-(5-(difluoromethyl)-1,3,4-oxadiazol-2-yl)-N-(1-(4-(trifluoromethoxy)phenyl)cyclobutyl)pyrimidin-2-amine]
> 10000	115	Fc1ccc(Cl)c(C2(Nc3ncc(-c4nnc(C(F)F)o4)cn3)CCC2)c1 [Compound 1961, N-(1-(2-chloro-5-fluorophenyl)cyclobutyl)-5-(5-(difluoromethyl)-1,3,4-oxadiazol-2-yl)pyrimidin-2-amine]
> 10000	221	FC(F)c1nnc(-c2cnc(NC3(c4cccc(C5CCN(C6COC6)CC5)c4)CCC3)nc2)o1 [Compound 2060, 5-(5-(difluoromethyl)-1,3,4-oxadiazol-2-yl)-N-(1-(3-(1-(oxetan-3-yl)piperidin-4-yl)phenyl)cyclobutyl)pyrimidin-2-amine]
> 10000	152	FC(F)(F)c1nnc(-c2cnc(NC3(c4cccc(Cl)c4)CC3)nc2)o1 [Compound 2051, N-(1-(3-chlorophenyl)cyclopropyl)-5-(5-(trifluoromethyl)-1,3,4-oxadiazol-2-yl)pyrimidin-2-amine]
> 10000	100	FC(F)c1nnc(-c2cnc(NC3(c4cccs4)CC3)nc2)o1 [Compound 2040, 5-(5-(difluoromethyl)-1,3,4-oxadiazol-2-yl)-N-(1-(thiophen-2-yl)cyclopropyl)pyrimidin-2-amine]
> 10000	25	Oc1cccc(C2(Nc3ncc(-c4nnc(C(F)F)o4)cn3)CCC2)c1 [Compound 1761, 3-(1-((5-(5-(difluoromethyl)-1,3,4-oxadiazol-2-yl)pyrimidin-2-yl)amino)cyclobutyl)phenol]
> 10000	50	COc1ccc(C2(Nc3ncc(-c4nnc(C(F)F)o4)cn3)CCC2)cc1 [Compound 1603, 5-(5-(difluoromethyl)-1,3,4-oxadiazol-2-yl)-N-(1-(4-methoxyphenyl)cyclobutyl)pyrimidin-2-amine]
> 10000	25	Cc1cccc(C2(Nc3ncc(-c4nnc(C(F)F)o4)cn3)CCC2)c1 [Compound 1673, 5-(5-(difluoromethyl)-1,3,4-oxadiazol-2-yl)-N-(1-(m-tolyl)cyclobutyl)pyrimidin-2-amine]
> 10000	1230	Fc1ccc(C2(Nc3ncc(-c4nnc(C(F)(F)F)o4)cn3)CCC2)c(Cl)c1 [Compound 1960, N-(1-(2-chloro-4-fluorophenyl)cyclobutyl)-5-(5-(trifluoromethyl)-1,3,4-oxadiazol-2-yl)pyrimidin-2-amine]
> 10000	35	Fc1cc(Cl)ccc1C1(Nc2ncc(-c3nnc(C(F)F)o3)cn2)CC1 [Compound 2056, N-(1-(4-chloro-2-fluorophenyl)cyclopropyl)-5-(5-(difluoromethyl)-1,3,4-oxadiazol-2-yl)pyrimidin-2-amine]
> 10000	200	FC(F)c1nnc(-c2cnc(NC3(c4ccc(Cl)cc4Cl)CCC3)nc2)o1 [Compound 1836, N-(1-(2,4-dichlorophenyl)cyclobutyl)-5-(5-(difluoromethyl)-1,3,4-oxadiazol-2-yl)pyrimidin-2-amine]
> 10000	38	Fc1ccc(C2(Nc3ncc(-c4nnc(C(F)F)o4)cn3)CCC2)cc1 [Compound 1611, 5-(5-(difluoromethyl)-1,3,4-oxadiazol-2-yl)-N-(1-(4-fluorophenyl)cyclobutyl)pyrimidin-2-amine]
> 10000	33	Fc1cc(F)cc(C2(Nc3ncc(-c4nnc(C(F)F)o4)cn3)CC2)c1 [Compound 2057, 5-(5-(difluoromethyl)-1,3,4-oxadiazol-2-yl)-N-(1-(3,5-difluorophenyl)cyclopropyl)pyrimidin-2-amine]
> 10000	302	FC(F)c1nnc(-c2cnc(NC3(c4ccccc4OC(F)(F)F)CCC3)nc2)o1 [Compound 2028, 5-(5-(difluoromethyl)-1,3,4-oxadiazol-2-yl)-N-(1-(2-(trifluoromethoxy)phenyl)cyclobutyl)pyrimidin-2-amine]
> 10000	305	FC(F)(F)c1nnc(-c2cnc(NC3(c4ccccc4)CCCC3)nc2)o1 [Compound 1580, N-(1-phenylcyclopentyl)-5-(5-(trifluoromethyl)-1,3,4-oxadiazol-2-yl)pyrimidin-2-amine]
> 10000	1850	Fc1ccc(Cl)cc1C1(Nc2ncc(-c3nnc(C(F)(F)F)o3)cn2)CCC1 [Compound 1964, N-(1-(5-chloro-2-fluorophenyl)cyclobutyl)-5-(5-(trifluoromethyl)-1,3,4-oxadiazol-2-yl)pyrimidin-2-amine]
> 10000	387	FC(F)c1nnc(-c2cnc(NC3(c4ccc(C5CCN(C6COC6)CC5)cc4)CCC3)nc2)o1 [Compound 2023, 5-(5-(difluoromethyl)-1,3,4-oxadiazol-2-yl)-N-(1-(4-(1-(oxetan-3-yl)piperidin-4-yl)phenyl)cyclobutyl)pyrimidin-2-amine]
> 10000	32	Fc1ccc(F)c(C2(Nc3ncc(-c4nnc(C(F)F)o4)cn3)CCC2)c1 [Compound 1821, 5-(5-(difluoromethyl)-1,3,4-oxadiazol-2-yl)-N-(1-(2,5-difluorophenyl)cyclobutyl)pyrimidin-2-amine]
> 10000	44	Cc1ccccc1C1(Nc2ncc(-c3nnc(C(F)F)o3)cn2)CCC1 [Compound 1671, 5-(5-(difluoromethyl)-1,3,4-oxadiazol-2-yl)-N-(1-(o-tolyl)cyclobutyl)pyrimidin-2-amine]
> 10000	> 10000	Cc1ccc(S(=O)(=O)CC2(Nc3ncc(-c4nnc(C(F)F)o4)cn3)CCC2)cc1 [Compound 2026, 5-(5-(difluoromethyl)-1,3,4-oxadiazol-2-yl)-N-(1-(tosylmethyl)cyclobutyl)pyrimidin-2-amine]
> 10000	90	Fc1ccc(C2(Nc3ncc(-c4nnc(C(F)F)o4)cn3)CCC2)c(F)c1 [Compound 2027, 5-(5-(difluoromethyl)-1,3,4-oxadiazol-2-yl)-N-(1-(2,4-difluorophenyl)cyclobutyl)pyrimidin-2-amine]
> 10000	70	Fc1cc(F)cc(C2(Nc3ncc(-c4nnc(C(F)F)o4)cn3)CCC2)c1 [Compound 1819, 5-(5-(difluoromethyl)-1,3,4-oxadiazol-2-yl)-N-(1-(3,5-difluorophenyl)cyclobutyl)pyrimidin-2-amine]
